In patent EP0307172A2, “Improvements in or relating to specific 5-HT3 antagonists” (ELI LILLY AND COMPANY, priority 1987, dated 1989):

Target: T1, 5-HT₃ receptor (Rattus norvegicus, UniProt P35563)
T1 construct: from tissue
T1 sequence (P35563 24-483): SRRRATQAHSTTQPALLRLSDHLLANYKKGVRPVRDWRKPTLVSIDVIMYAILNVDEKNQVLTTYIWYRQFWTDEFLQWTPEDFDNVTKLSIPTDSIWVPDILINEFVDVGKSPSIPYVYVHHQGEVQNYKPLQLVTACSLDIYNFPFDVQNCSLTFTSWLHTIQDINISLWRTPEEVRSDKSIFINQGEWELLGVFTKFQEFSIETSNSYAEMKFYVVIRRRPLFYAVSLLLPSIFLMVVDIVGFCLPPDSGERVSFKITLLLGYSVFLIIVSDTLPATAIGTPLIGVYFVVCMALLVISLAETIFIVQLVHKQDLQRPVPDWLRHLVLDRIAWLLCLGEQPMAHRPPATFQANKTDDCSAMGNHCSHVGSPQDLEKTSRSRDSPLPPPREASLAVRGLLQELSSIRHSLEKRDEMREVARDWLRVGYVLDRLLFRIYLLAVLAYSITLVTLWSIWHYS
Assay: Inhibition of serotonin-induced Von Bezold-Jarisch reflex in rats
Assay type: in vivo
Details: rat, iv, 15 minutes prior to 5-HT, read-out: Percent Inhibition of Reflex in Rats; for inhibition at 0.003 mg/kg: 0.003 mg/kg I.V.; for inhibition at 0.01 mg/kg: 0.01 mg/kg I.V.; for inhibition at 0.001 mg/kg: 0.001 mg/kg I.V.; for inhibition at 0.03 mg/kg: 0.03 mg/kg I.V.
Excerpt: The compounds of Formula I of this invention are long-acting, orally effective specific 5-HT₃ receptor antagonists, rendering them useful for the treatment of migraine. Because of this mechanism, the compounds of this invention should also be useful for treating emesis, motion sickness, ischemic bowel disease, diabetic gastric paresis, relaxation of the gastro-intestinal tract for instrumentation, other gastro-intestinal pain following surgery, obstetrics or as in abdominal cramps, and for treating CNS disorders such as schizophrenia and anxiety. The ability of these compounds to antagonize the effects of 5-HT was assessed by their inhibition of the Von Bezold-Jarisch reflex induced by 5-HT injected intravenously into the rat (See Paintal, Physiol. Rev., 53, 159 (1973)). When administered by the intravenous route 15 minutes prior to the administration of 5-HT, the compounds of this invention were effective in inhibiting the serotonin-induced Bezold-Jarisch reflex as summarized in Table 1 below: Table 1

| SMILES | inhibition at 0.003 mg/kg | inhibition at 0.01 mg/kg | inhibition at 0.03 mg/kg | inhibition at 0.001 mg/kg |
| --- | --- | --- | --- | --- |
| CN1[C@@H]2CC[C@H]1C[C@H](OC(=O)c1cc(Cl)cc3c1OC(C)(C)C3)C2 [Example 26, Exo-2,2-dimethyl-5-chloro-2,3-dihydro-7-benzofurancarboxylic acid, 8-methyl-8-azabicyclo[3.2.1]oct-3-yl ester (Z)-2-butenedioate] |  | 2% |  |  |
| CC1(C)CCc2cccc(C(=O)NC3CN4CCC3CC4)c2O1 (stereo not drawn) [Example 53, N-(1-azabicyclo[2.2.2]oct-3-yl)-3,4-dihydro-2,2-dimethyl-2H-1-benzopyran-8-carboxamide (Z)-2-butenedioate] | 93% |  |  | 50% |
| CN1[C@@H]2CC[C@H]1C[C@@H](NC(=O)c1ccc3c(c1)CC(C)(C)O3)C2 [Example 20, Endo-2,3-dihydro-2,2-dimethyl-N-(8-methyl-8-azabicyclo[3.2.1]oct-3-yl)-5-benzofurancarboxamide (Z)-2-butenedioate] |  | 16% |  |  |
| CC1(C)Cc2cccc(C(=O)NC3CN4CCC3CC4)c2O1 (stereo not drawn) [Example 60, 2,3-Dihydro-2,2-dimethyl-N-(1-azabicyclo[2.2.2]oct-3-yl)-7-benzofurancarboxamide (Z)-2-butenedioate] | 87% |  |  | 25% |
| CC1Cc2cc(Cl)cc(C(=O)N[C@H]3C[C@H]4CC[C@@H](C3)N4C)c2O1 (mixture of isomers) [Example 32, dl-endo-5-chloro-2,3-dihydro-2-methyl-N-(8-methyl-8-azabicyclo[3.2.1]oct-3-yl)-7-benzofurancarboxamide (Z)-2-butenedioate] | 80% | 80% |  | 58% |
| CN1[C@@H]2CC[C@H]1C[C@@H](OC(=O)c1cccc3c1OC(C)(C)C3)C2 [Example 24, Endo-2,3-dihydro-2,2-dimethyl-7-benzofurancarboxylic acid, 8-methyl-8-azabicyclo[3.2.1]oct-3-yl ester (Z)-2-butenedioate] | 21% | 38% |  |  |

Continued, in another order:

| inhibition at 0.003 mg/kg | inhibition at 0.01 mg/kg | inhibition at 0.03 mg/kg | SMILES | inhibition at 0.001 mg/kg |
| --- | --- | --- | --- | --- |
| 25% | 89% |  | CN1[C@@H]2CC[C@H]1C[C@@H](NC(=O)c1cc(Cl)c(N)c3c1OC(C)(C)C3)C2 [Example 56, Endo-2,3-dihydro-4-amino-5-chloro-2,2-dimethyl-N-(8-methyl-8-azabicyclo[3.2.1]oct-3-yl)-7-benzofurancarboxamide (Z)-2-butenedioate] |  |
|  | 22% | 57% | CC1Cc2cccc(C(=O)N[C@H]3C[C@H]4CC[C@@H](C3)N4C)c2O1 (mixture of isomers) [Example 33, dl-endo-2,3-dihydro-2-methyl-N-(8-methyl-8-azabicyclo[3.2.1]oct-3-yl)-7-benzofurancarboxamide (Z)-2-butenedioate] |  |
|  | 26% | 51% | CC1Cc2cccc(C(=O)N[C@@H]3C[C@H]4CC[C@@H](C3)N4C)c2O1 (mixture of isomers) [Example 38, dl-exo-2,3-dihydro-2-methyl-N-(8-methyl-8-azabicyclo[3.2.1]oct-3-yl)-7-benzofurancarboxamide (Z)-2-butenedioate] |  |
|  | -3% |  | CN1[C@@H]2CC[C@H]1C[C@@H](NC(=O)c1c(Cl)ccc3c1OC(C)(C)C3)C2 [Example 50, Endo-2,2-dimethyl-2,3-dihydro-6-chloro-N-(8-methyl-8-azabicyclo[3.2.1]oct-3-yl)-7-benzofurancarboxamide (Z)-2-butenedioate] |  |
|  | 76% |  | CN1[C@@H]2CC[C@H]1C[C@@H](NC(=O)c1cccc3c1OC(C)(C)CC3)C2 [Example 36, Endo-2,2-dimethyl-N-(8-methyl-8-azabicyclo[3.2.1]oct-3-yl)-8-chromancarboxamide (Z)-2-butenedioate] | 4% |
|  | 3% |  | COc1c(Cl)cc(C(=O)N[C@H]2C[C@H]3CC[C@@H](C2)N3C)c2c1CC(C)(C)O2 [Example 57, Endo-5-chloro-2,3-dihydro-4-methoxy-2,2-dimethyl-N-(8-methyl-8-azabicyclo[3.2.1]oct-3-yl)-7-benzofurancarboxamide (Z)-2-butenedioate] |  |
